Assay results: PubChem BioAssay AID282 (DTP/NCI, 2004)
Values joined by “and” are separate entries in the source; they are usually repeats but may differ in a detail not shown here. Equal values may be shown once. Toxic doses and inconclusive results are not listed.

Test system: BDF1 mice, L1210 terephthalanilide-resistant leukemia ip, survival T/C
Experiment: NCI In Vivo Anticancer Drug Screen. Data for tumor model L1210 Leukemia resistant to A Terephthalanilide; NSC 38280 (intraperitoneal) in B6D2F1 (BDF1) mice
Conditions: endpoint: mean survival time, higher = longer survival
Experimental: The antitumor activity of compounds was measured in mice bearing transplantable tumors. Survival or tumor size were measured and the results are expressed as the measurement made in the treated group (T) divided by the measurement made in the vehicle treated control group (C). The tumor model used in this assay is L1210 Leukemia resistant to A Terephthalanilide; NSC 38280 (intraperitoneal) in B6D2F1 (BDF1) mice

[1] = dose: 15.0 mg/kg/injection, schedule: Q01DX010 (ip), vehicle: saline
[2] = dose: 25.0 mg/kg/injection, schedule: Q01DX Z (ip), vehicle: carboxymethylcellulose (CMC)
[3] = dose: 100.0 mg/kg/injection, schedule: Q01DX Z (ip), vehicle: carboxymethylcellulose (CMC)
[4] = dose: 4.0 mg/kg/injection, schedule: Q01DX010 (ip), vehicle: saline
[5] = dose: 8.0 mg/kg/injection, schedule: Q01DX010 (ip), vehicle: saline
[6] = dose: 16.0 mg/kg/injection, schedule: Q01DX010 (ip), vehicle: saline
[7] = dose: 32.0 mg/kg/injection, schedule: Q01DX010 (ip), vehicle: saline
[8] = dose: 50.0 mg/kg/injection, schedule: Q01DX Z (ip), vehicle: saline
[9] = dose: 75.0 mg/kg/injection, schedule: Q01DX Z (ip), vehicle: saline
[10] = dose: 10.0 mg/kg/injection, schedule: Q01DX Z (ip), vehicle: carboxymethylcellulose (CMC)
[11] = dose: 50.0 mg/kg/injection, schedule: Q01DX010 (ip), vehicle: saline
[12] = dose: 200.0 mg/kg/injection, schedule: Q01DX010 (ip), vehicle: saline
[13] = dose: 25.0 mg/kg/injection, schedule: Q01DX010 (ip), vehicle: saline
[14] = dose: 62.5 micrograms/kg/injection, schedule: Q01DX010 (ip), vehicle: saline
[15] = dose: 125.0 micrograms/kg/injection, schedule: Q01DX010 (ip), vehicle: saline
[16] = dose: 500.0 micrograms/kg/injection, schedule: Q01DX010 (ip), vehicle: saline

For `O=C(Nc1ccc(C(=O)Nc2ccc(C3=NCCCN3)cc2)cc1)Nc1ccc(C2=NCCCN2)cc1`, the T/C (dose: 1.88 mg/kg/injection, schedule: Q01DX010 (ip), vehicle: saline) was 93 % of control and 108 % of control, the T/C (dose: 3.75 mg/kg/injection, schedule: Q01DX010 (ip), vehicle: saline) was 95 % of control and 114 % of control and the T/C (dose: 7.5 mg/kg/injection, schedule: Q01DX010 (ip), vehicle: saline) was 122 % of control and 119 % of control. For the same compound, the T/C [1] was 117 % of control.
`CN(C)C(=S)N=Nc1c(O)[nH]c2ccccc12` was tested, and the T/C [2] was 90 % of control, the T/C (dose: 50.0 mg/kg/injection, schedule: Q01DX Z (ip), vehicle: carboxymethylcellulose (CMC)) was 98 % of control and the T/C [3] was 89 % of control.
`CN(C)c1ccc(/C=C/c2ccnc3ccccc23)cc1` was tested, and the T/C [4] was 96 % of control and 97 % of control, the T/C (dose: 6.25 mg/kg/injection, schedule: Q01DX Z (ip), vehicle: saline) was 90 % of control and the T/C [5] was 100 % of control and 101 % of control. The T/C (dose: 12.5 mg/kg/injection, schedule: Q01DX Z (ip), vehicle: saline) was 100 % of control, the T/C [6] was 99 % of control and 100 % of control and the T/C (dose: 25.0 mg/kg/injection, schedule: Q01DX Z (ip), vehicle: saline) was 100 % of control. For the same compound, the T/C [7] was 101 % of control, the T/C [8] was 90 % of control and the T/C [9] was 96 % of control and 100 % of control. The T/C (dose: 100.0 mg/kg/injection, schedule: Q01DX Z (ip), vehicle: saline) was 94 % of control and 108 % of control, the T/C (dose: 150.0 mg/kg/injection, schedule: Q01DX Z (ip), vehicle: saline) was 96 % of control and 102 % of control and the T/C (dose: 200.0 mg/kg/injection, schedule: Q01DX Z (ip), vehicle: saline) was 94 % of control.
`Cn1cnc([N+](=O)[O-])c1Sc1nc(N)nc2nc[nH]c12` was tested, and the T/C (dose: 0.5 mg/kg/injection, schedule: Q01DX Z (ip), vehicle: carboxymethylcellulose (CMC)) was 117 % of control, the T/C (dose: 2.0 mg/kg/injection, schedule: Q01DX Z (ip), vehicle: carboxymethylcellulose (CMC)) was 191 % of control and the T/C (dose: 3.75 mg/kg/injection, schedule: Q01DX Z (ip), vehicle: carboxymethylcellulose (CMC)) was 170 % of control. The T/C [10] was 120 % of control.
In the case of `O=C(Nc1ccc(C2=NCCN2)cc1)c1ccc(C(=O)Nc2ccc(C3=NCCN3)cc2)cc1`, the T/C (dose: 4.0 mg/kg/injection, schedule: Q01DX010 (ip), vehicle: other) is reported as 112 % of control and 115 % of control, the T/C (dose: 8.0 mg/kg/injection, schedule: Q01DX010 (ip), vehicle: other) is reported as 123 % of control and 114 % of control and the T/C (dose: 16.0 mg/kg/injection, schedule: Q01DX010 (ip), vehicle: other) is reported as 112 % of control and 117 % of control. For the same compound, the T/C (dose: 32.0 mg/kg/injection, schedule: Q01DX010 (ip), vehicle: other) was 114 % of control and 117 % of control and the T/C (dose: 64.0 mg/kg/injection, schedule: Q01DX010 (ip), vehicle: other) was 103 % of control and 110 % of control.
In the case of `CC(CCC(C)OS(C)(=O)=O)OS(C)(=O)=O` (configuration not stated), the T/C (dose: 2.0 mg/kg/injection, schedule: Q01DX010 (ip), vehicle: saline) is reported as 102 % of control, the T/C (dose: 2.5 mg/kg/injection, schedule: Q01DX Z (ip), vehicle: carboxymethylcellulose (CMC)) is reported as 94 % of control and the T/C [4] is reported as 95 % of control and 100 % of control. For the same compound, the T/C (dose: 5.0 mg/kg/injection, schedule: Q01DX Z (ip), vehicle: carboxymethylcellulose (CMC)) was 97 % of control, the T/C (dose: 7.5 mg/kg/injection, schedule: Q01DX Z (ip), vehicle: carboxymethylcellulose (CMC)) was 103 % of control and the T/C [5] was 100 % of control. For the same compound, the T/C [10] was 111 % of control, the T/C (dose: 12.5 mg/kg/injection, schedule: Q01DX Z (ip), vehicle: carboxymethylcellulose (CMC)) was 109 % of control and the T/C [6] was 100 % of control and 112 % of control. The T/C [2] was 88 % of control and the T/C [7] was 110 % of control.
For `C#CCN(C)Cc1ccccc1`, the T/C [11] was 91 % of control, the T/C (dose: 100.0 mg/kg/injection, schedule: Q01DX010 (ip), vehicle: saline) was 102 % of control and the T/C [12] was 93 % of control.
In the case of `C[C@H](N)C(=O)N[C@@H]1[C@H]2C(=C(O)C[C@@H](O)[C@@H]2O)C(=O)O[C@@H]1C`, the T/C (dose: 375.0 mg/kg/injection, schedule: Q01DX Z (ip), vehicle: saline) is reported as 156 % of control, the T/C (dose: 500.0 mg/kg/injection, schedule: Q01DX Z (ip), vehicle: saline) is reported as 170 % of control and the T/C (dose: 750.0 mg/kg/injection, schedule: Q01DX Z (ip), vehicle: saline) is reported as 202 % of control.
With `CS(=O)(=O)OCCCCOS(C)(=O)=O` the T/C (dose: 6.25 mg/kg/injection, schedule: Q01DX010 (ip), vehicle: saline) was 98 % of control and 103 % of control, the T/C (dose: 12.5 mg/kg/injection, schedule: Q01DX010 (ip), vehicle: saline) was 100 % of control and 102 % of control and the T/C [13] was 93 % of control and 102 % of control. The T/C [11] was 98 % of control and 100 % of control.
With `CSCS(=O)C[C@H](CO)NC(=O)/C=C/c1c(C)[nH]c(=O)[nH]c1=O` (some centres not stated) the T/C [14] was 100 % of control, the T/C [15] was 100 % of control and the T/C (dose: 250.0 micrograms/kg/injection, schedule: Q01DX010 (ip), vehicle: saline) was 102 % of control. For the same compound, the T/C [16] was 102 % of control.
In the case of `O[C@H](CN1CC1)[C@@H](O)CN1CC1`, the T/C (dose: 0.18 mg/kg/injection, schedule: Q01DX Z (ip), vehicle: saline) is reported as 317 % of control, the T/C (dose: 0.25 mg/kg/injection, schedule: Q01DX Z (ip), vehicle: saline) is reported as 300 % of control and the T/C (dose: 0.37 mg/kg/injection, schedule: Q01DX Z (ip), vehicle: saline) is reported as 223 % of control. The T/C (dose: 5.0 mg/kg/injection, schedule: Q01DX Z (ip), vehicle: saline) was 188 % of control, the T/C (dose: 2.0 micrograms/kg/injection, schedule: Q01DX Z (ip), vehicle: saline) was 109 % of control and the T/C (dose: 4.0 micrograms/kg/injection, schedule: Q01DX Z (ip), vehicle: saline) was 101 % of control. For the same compound, the T/C (dose: 6.0 micrograms/kg/injection, schedule: Q01DX Z (ip), vehicle: saline) was 98 % of control, the T/C (dose: 9.0 micrograms/kg/injection, schedule: Q01DX Z (ip), vehicle: saline) was 110 % of control and the T/C (dose: 18.0 micrograms/kg/injection, schedule: Q01DX Z (ip), vehicle: saline) was 115 % of control. The T/C (dose: 37.0 micrograms/kg/injection, schedule: Q01DX Z (ip), vehicle: saline) was 103 % of control, the T/C (dose: 50.0 micrograms/kg/injection, schedule: Q01DX Z (ip), vehicle: saline) was 156 % of control and the T/C [14] was 120 % of control. For the same compound, the T/C (dose: 75.0 micrograms/kg/injection, schedule: Q01DX Z (ip), vehicle: saline) was 154 % of control and 162 % of control, the T/C [15] was 111 % of control and the T/C (dose: 180.0 micrograms/kg/injection, schedule: Q01DX Z (ip), vehicle: saline) was 284 % of control. The T/C (dose: 210.0 micrograms/kg/injection, schedule: Q01DX Z (ip), vehicle: saline) was 235 % of control and the T/C [16] was 91 % of control.
In the case of `N#CCSc1ncnc2nc[nH]c12`, the T/C [2] is reported as 122 % of control, the T/C (dose: 30.0 mg/kg/injection, schedule: Q01DX010 (ip), vehicle: saline) is reported as 112 % of control and 113 % of control and the T/C (dose: 60.0 mg/kg/injection, schedule: Q01DX010 (ip), vehicle: saline) is reported as 109 % of control and 115 % of control. The T/C [3] was 150 % of control and the T/C (dose: 120.0 mg/kg/injection, schedule: Q01DX010 (ip), vehicle: saline) was 91 % of control.
For `O=C(Nc1cccc(C(=O)Nc2ccc(C3=NCCN3)cc2)c1)c1ccc(C2=NCCN2)cc1`, the T/C (dose: 54.0 mg/kg/injection, schedule: Q01DX010 (ip), vehicle: saline) was 90 % of control.
For `CSc1ncnc2c1ncn2C1OC(CO)C(O)C1O` (configuration not stated), the T/C [4] was 105 % of control, the T/C (dose: 5.5 mg/kg/injection, schedule: Q01DX Z (ip), vehicle: saline) was 117 % of control and the T/C [5] was 116 % of control. For the same compound, the T/C [1] was 151 % of control, the T/C [6] was 122 % of control and the T/C (dose: 20.0 mg/kg/injection, schedule: Q01DX010 (ip), vehicle: saline) was 162 % of control. The T/C (dose: 37.5 mg/kg/injection, schedule: Q01DX Z (ip), vehicle: saline) was 154 % of control, the T/C [8] was 101 % of control and the T/C [9] was 88 % of control.
With `CC(=O)OCC1OC(n2ncc(=O)[nH]c2=O)C(OC(C)=O)C1OC(C)=O` (configuration not stated) the T/C (dose: 125.0 mg/kg/injection, schedule: Q01DX Z (ip), vehicle: carboxymethylcellulose (CMC)) was 183 % of control, the T/C (dose: 250.0 mg/kg/injection, schedule: Q01DX Z (ip), vehicle: carboxymethylcellulose (CMC)) was 206 % of control and the T/C (dose: 375.0 mg/kg/injection, schedule: Q01DX Z (ip), vehicle: carboxymethylcellulose (CMC)) was 214 % of control. The T/C (dose: 500.0 mg/kg/injection, schedule: Q01DX Z (ip), vehicle: carboxymethylcellulose (CMC)) was 168 % of control.
For `CN(C)/N=N/c1nc[nH]c1C(N)=O`, the T/C [13] was 123 % of control and 101 % of control, the T/C [11] was 114 % of control and the T/C [12] was 102 % of control.
